Experimental data taken from ChEMBL document CHEMBL3509396, “FDA drug approval package for Aspirin (clinical pharmacology review, Ref:ID 3227827)”.

Tests used:
[1] = (§1) Mean Tmax of acetylsalicylic acid concentration after administration of Genuine Bayer Aspirin Tablet at fasting condition in human; type: ADME, organism-based; design: dietary status Fasting, dose 650 mg, dosed compound id 2.46814e+06, dosed compound name Acetylsalicylic acid, regimen Single, route oral, sampling time 24 h, study doses 325/650 mg; details: plasma, po, 650 mg
[2] = (§2) Mean AUC0-t of acetylsalicylic acid concentration after administration of Genuine Bayer Aspirin Tablet at fasting condition in human; type: ADME, organism-based; design: dietary status Fasting, dose 650 mg, dosed compound id 2.46814e+06, dosed compound name Acetylsalicylic acid, regimen Single, route oral, sampling time 24 h, study doses 325/650 mg; details: plasma, po, 650 mg
[3] = (§3) Mean Cmax of acetylsalicylic acid concentration after administration of Genuine Bayer Aspirin Tablet at fasting condition in human; type: ADME, organism-based; design: dietary status Fasting, dose 325 mg, dosed compound id 2.46814e+06, dosed compound name Acetylsalicylic acid, regimen Single, route oral, sampling time 24 h, study doses 325/650 mg; details: plasma, po, 325 mg
[4] = as §3; type: ADME, organism-based; design: dietary status Fasting, dose 650 mg, dosed compound id 2.46814e+06, dosed compound name Acetylsalicylic acid, regimen Single, route oral, sampling time 24 h, study doses 325/650 mg; details: plasma, po, 650 mg
[5] = (§4) Mean Tlag of acetylsalicylic acid concentration after administration of Genuine Bayer Aspirin Tablet at fasting condition in human; type: ADME, organism-based, Plasma; design: dietary status Fasting, dose 325 mg, dosed compound id 2.46814e+06, dosed compound name Acetylsalicylic acid, regimen Single, route oral, sampling time 24 h, study doses 325/650 mg; details: in vivo, po
[6] = as §1; type: ADME, organism-based; design: dietary status Fasting, dose 325 mg, dosed compound id 2.46814e+06, dosed compound name Acetylsalicylic acid, regimen Single, route oral, sampling time 24 h, study doses 325/650 mg; details: plasma, po, 325 mg
[7] = (§5) Mean terminal elimination half-life of acetylsalicylic acid concentration after administration of Genuine Bayer Aspirin Tablet at fasting condition in human; type: ADME, organism-based; design: dietary status Fasting, dose 650 mg, dosed compound id 2.46814e+06, dosed compound name Acetylsalicylic acid, regimen Single, route oral, sampling time 24 h, study doses 325/650 mg; details: plasma, po, 650 mg
[8] = as §4; type: ADME, organism-based, Plasma; design: dietary status Fasting, dose 650 mg, dosed compound id 2.46814e+06, dosed compound name Acetylsalicylic acid, regimen Single, route oral, sampling time 24 h, study doses 325/650 mg; details: in vivo, po
[9] = as §2; type: ADME, organism-based; design: dietary status Fasting, dose 325 mg, dosed compound id 2.46814e+06, dosed compound name Acetylsalicylic acid, regimen Single, route oral, sampling time 24 h, study doses 325/650 mg; details: plasma, po, 325 mg
[10] = (§6) Mean AUCinfinity of acetylsalicylic acid concentration after administration of Genuine Bayer Aspirin Tablet at fasting condition in human; type: ADME, organism-based; design: time infinity, dietary status Fasting, dose 650 mg, dosed compound id 2.46814e+06, dosed compound name Acetylsalicylic acid, regimen Single, route oral, sampling time 24 h, study doses 325/650 mg; details: plasma, po, 650 mg, read-out: AUCinfinity (converted)
[11] = as §6; type: ADME, organism-based; design: time infinity, dietary status Fasting, dose 325 mg, dosed compound id 2.46814e+06, dosed compound name Acetylsalicylic acid, regimen Single, route oral, sampling time 24 h, study doses 325/650 mg; details: plasma, po, 325 mg, read-out: AUCinfinity (converted)
[12] = as §5; type: ADME, organism-based; design: dietary status Fasting, dose 325 mg, dosed compound id 2.46814e+06, dosed compound name Acetylsalicylic acid, regimen Single, route oral, sampling time 24 h, study doses 325/650 mg; details: plasma, po, 325 mg

`CC(=O)Oc1ccccc1C(=O)O` [ASPIRIN] gave a Tmax [1] of 40 min, an AUC(0-t) [2] of 6880 ng·h/mL and a Cmax [3] of 2590 ng/mL. It also gave a Cmax [4] of 5100 ng/mL, a Tlag [5] of 2 min and a Tmax [6] of 68 min. For the same molecule, the half-life [7] was 55 min, the Tlag [8] was 1 min and the AUC(0-t) [9] was 3520 ng·h/mL. For the same molecule, the AUC(0-inf) [10] was 7280 ng·h/mL, the AUC(0-inf) [11] was 3830 ng·h/mL and the half-life [12] was 31 min.
